From article PMC9027131, “Dual PI3K/Akt Inhibitors Bearing Coumarin-Thiazolidine Pharmacophores as Potential Apoptosis Inducers in MCF-7 Cells” (Pharmaceuticals, 2022)
Read-outs that look alike come from different tables or passages of the source. One block for each compound: values may come before it.

Assays:
[1] = tested on: MCF 10 non-tumorigenic epithelial cell line; assay: MTT assay in non-cancerous epithelial cells (MCF 10); type: cell-based; conditions: for IC50: Homo sapiens, MCF10, MTT assay, non-cancerous epithelial cells, means ± sd, n = 3; for Selectivity Index MCF-10/MCF-7: ratio of IC50 MCF-10 to IC50 MCF-7
Description: (§1) MCF-7 breast cancer cell line (ATCC® HTB-22™) plus non-tumorigenic epithelial cell line (MCF 10, ATCC® CRL-10317™) were supplied from VACSERA (Cairo, Egypt) and cultured in Dulbecco’s Modified Eagle Medium (Invitrogen-Life Technologies, Carlsbad, CA, USA) with 1% antibiotic solution (streptomycin–penicillin) plus 10% fetal bovine serum (Hyclone) in a 5% (v/v) humidified CO2 incubator at 37 °C.
(§2) Firstly, cells were kept in a humidified atmosphere (37 °C, 24 h), and then incubated with serial concentrations of the tested compounds. After 48 h, the medium was aspirated, and then cells were incubated with 5% MTT solution (M-5655; Sigma Aldrich, St. Louis, MO USA) (200 µL/well, 2 h), allowing the dye to metabolize into the colored insoluble formazan complex that was then dissolved in the appropriate solubilization solution (M-8910) (200 µL/well), for 30 min with gentle mixing at room temperature. The UV absorbance was measured using a microplate reader (570 nm), and cell viability was determined with respect to untreated control cells.

MCF-7 cells [2] = assay: MTT cytotoxicity assay in MCF-7 cells; type: cell-based, human; conditions: means ± sd, n = 3
Description: The in vitro anticancer activity of the designed coumarin-thiosemicarbazones and coumarin-thiazolidine-4-one hybrids against MCF-7 cells was tested using the MTT assay, and 5-fluorouracil (5-FU) was used as the reference drug. The tested compounds were used in different concentrations, and cell survival was determined after incubation for 48 h as reported. The cytotoxic activity is represented in Table 1 as IC50 (µM) values.
as §1
as §2, with “cells. […] The values were means ± sd; n = 3.” for “cells.”

PI3K β = conditions: Figure 1, pan PI3K inhibitor; cited from earlier work
PI3K δ = conditions: cited from earlier work
PI3K α = conditions: cited from earlier work
MCF-7 cells [3] = assay: Cell cycle analysis by flow cytometry (propidium iodide); type: cell-based, human; conditions: MCF-7, treated at IC50, 48 h
Description: VIIb-treated cells were subjected to cell cycle phase distribution analysis as well as apoptosis rates determination by flow cytometric analysis in MCF-7 cells, as reported.
Control and VIIb-treated (IC50 µM, 48 h) MCF-7 cells were harvested and then subjected to cell cycle analysis by flow cytometry.
Cell cycle analysis and apoptosis rates following VIIb treatment were investigated using a Propidium Iodide Flow Cytometry Kit (ab139418; Abcam, Cambridge, UK) and Annexin V-FITC apoptosis kit (Catalog: K101-25; BioVision Research Products, San Francisco, CA, USA), respectively, following the manufacturer’s instructions as stated by a previous study.

Akt-1 = biological target: T1, Akt-1 (Homo sapiens, UniProt P31749); assay: Akt Kinase Activity assay kit; type: biochemical; conditions: means ± sd, n = 3; read-out: IC50 (µM) Akt-1 Isoform
T1 construct: purchased Abcam ab139436
Source text: Accumulating evidence highlighted that PI3K signaling pathway upregulation is highly implicated in breast cancer development and disease progression as well as resistance to hormones and cytotoxic therapy. Therefore, it is essential to elucidate the effect of the novel compound, VIIb, on the PI3K/Akt signaling pathway by using in vitro PI3K class 1A enzyme inhibition assay conducted on PI3K-α and PI3K-γ isoforms as well as an Akt-1 enzyme inhibition assay. […] Furthermore, targeting the PI3K-γ isoform in breast cancer could contribute to enhancing the anti-tumor immunity.
The in vitro inhibition of PI3K and Akt kinase activities by VIIb was assessed using a PI3Kα (p110α/p85) assay kit (Catalog #79781; BPS Bioscience, Inc, San Diego, CA, USA), PI3Kγ (p110γ/PIK3R5) assay kit (Catalog #79803; BPS Bioscience, Inc, San Diego, CA, USA), and Akt Kinase Activity assay kit (ab139436; Abcam, Cambridge, UK) following the manufacturer’s instructions as described previously. The results were expressed as IC50 values using dose–response curves and linear regression equations. LY294002 compound was taken as the reference compound. The values were means ± sd; n = 3.

Akt = conditions: Figure 1, reported Akt inhibitor; cited from earlier work

T1 sequence (P31749 whole entry, species assumed, canonical isoform): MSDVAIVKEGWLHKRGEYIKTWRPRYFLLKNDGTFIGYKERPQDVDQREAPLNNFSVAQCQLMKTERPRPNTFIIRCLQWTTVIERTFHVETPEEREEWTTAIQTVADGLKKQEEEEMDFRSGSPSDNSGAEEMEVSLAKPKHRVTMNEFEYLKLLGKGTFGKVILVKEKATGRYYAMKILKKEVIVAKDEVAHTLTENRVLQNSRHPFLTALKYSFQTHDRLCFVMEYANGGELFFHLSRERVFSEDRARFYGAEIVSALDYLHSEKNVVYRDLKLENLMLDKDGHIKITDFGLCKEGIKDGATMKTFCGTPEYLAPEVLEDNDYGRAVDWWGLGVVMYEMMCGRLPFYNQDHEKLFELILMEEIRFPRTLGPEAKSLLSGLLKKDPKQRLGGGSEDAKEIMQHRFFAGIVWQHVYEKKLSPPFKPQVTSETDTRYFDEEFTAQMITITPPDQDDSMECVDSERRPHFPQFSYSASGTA

Structure (SMILES): O=c1[nH]cc(F)c(=O)[nH]1 [Compound 5-FU, 5-fluorouracil, reference compound]
- IC50 [1]: 36.2 ± 1.89 µM
- Selectivity Index MCF-10/MCF-7 [1]: 1.30
- IC50 (MCF-7 cells [2]; Homo sapiens, MCF7, 48 h): 27.8 ± 1.41 µM

Structure (SMILES): CCOc1ccc2c(C)cc(=O)oc2c1C(C)=NN=C1SCC(=O)N1C(=O)c1ccccc1 (mixture of isomers) [VIIIe, (Z/E)-3-Benzoyl-2-{[1-(7-ethoxy-4-methylcoumarin-8-yl)-ethylidene]-hydrazono}-thiazolidin-4-one]
- IC50 (MCF-7 cells [2]; 48 h): 26.4 ± 1.38 µM

- melting point: 183 °C
Structure (SMILES): CCNC(=S)N/N=C(/C)c1c(OCC)ccc2c(C)cc(=O)oc12 [VIb, (Z/E)-1(1-(7-ethoxy-4-methylcoumarin)ethylidene)-4-ethyl-thiosemicarbazone]
- IC50 (MCF-7 cells [2]; Homo sapiens, MCF7, 48 h): 38.7 ± 2.09 µM

Structure (SMILES): COc1ccc(-c2nc(N/N=C/c3c[nH]c4ccccc34)nc(N3CCOCC3)c2C#N)cc1 [Compound 1]
- IC50 (PI3K β): 0.94 µM
- IC50 (PI3K δ; Figure 1, pan PI3K inhibitor): 0.64 µM
- IC50 (PI3K α; Figure 1, pan PI3K inhibitor, read-out: IC50 (α)): 0.96 µM

Structure (SMILES): C/C(=N/NC(=S)NC(=O)c1ccccc1)c1c(O)ccc2c(C)cc(=O)oc12 [Vb]
- IC50 (MCF-7 cells [2]; Homo sapiens, MCF7, 48 h): 47.3 ± 2.47 µM

Structure (SMILES): CCOc1ccc2c(C)cc(=O)oc2c1C(C)=NN=C1SCC(=O)N1Cc1ccccc1 (mixture of isomers) [VIIId, (Z/E)-3-Benzyl-2-{[1-(7-ethoxy-4-methylcoumarin-8-yl)-ethylidene]-hydrazono}-thiazolidin-4-one]
- IC50 (MCF-7 cells [2]; 48 h): 79.9 ± 4.18 µM

Structure (SMILES): C/C(=N/NC(=S)NCc1ccccc1)c1c(O)ccc2c(C)cc(=O)oc12 [Va]
- IC50 (MCF-7 cells [2]; Homo sapiens, MCF7, 48 h): 5.13 ± 0.28 µM

Structure (SMILES): CCOc1ccc2c(C)cc(=O)oc2c1C(C)=NN=C1SCC(=O)N1CC (mixture of isomers) [VIIIb, (Z/E)-2-{[1-(7-Ethoxy-4-methylcoumarin-8-yl)-ethylidene]-hydrazono}-3-ethyl-thiazolidin-4-one]
- IC50 (MCF-7 cells [2]; 48 h): 57.3 ± 2.99 µM
- DNA Content % Pre G1 (MCF-7 cells [3]; control 1.55): 35.25%
- DNA Content % G2/M (MCF-7 cells [3]; control 9.71): 5.59%
- DNA Content % S (MCF-7 cells [3]; control 36.58): 46.02%
- DNA Content % G0/G1 (MCF-7 cells [3]; control 53.71): 48.39%

- melting point: 220 to 223 °C
Structure (SMILES): CCOc1ccc2c(C)cc(=O)oc2c1/C(C)=N\NC(=S)NC(=O)c1ccccc1 [VIe, (Z/E)-1(1-(7-ethoxy-4-methylcoumarin)ethylidene)-4-benzoyl-thiosemicarbazone]
- IC50 (MCF-7 cells [2]; Homo sapiens, MCF7, 48 h): 43.1 ± 2.25 µM

Structure (SMILES): C=CCN1C(=O)CSC1=NN=C(C)c1c(OCC)ccc2c(C)cc(=O)oc12 (mixture of isomers) [VIIIc, (Z/E)-3-Allyl-2-{[1-(7-ethoxy-4-methylcoumarin-8-yl)-ethylidene]-hydrazono}-thiazolidin-4-one]
- IC50 (MCF-7 cells [2]; 48 h): 4.95 ± 0.26 µM

- melting point: 140 to 143 °C
Structure (SMILES): CCOc1ccc2c(C)cc(=O)oc2c1/C(C)=N\NC(=S)NCc1ccccc1 [VId, (Z/E)-1(1-(7-ethoxy-4-methylcoumarin)ethylidene)-4-benzyl-thiosemicarbazone]
- IC50 (MCF-7 cells [2]; Homo sapiens, MCF7, 48 h): 2.61 ± 0.14 µM

- IC50 (Akt-1): 3.53 ± 0.18 µM
Structure (SMILES): O=c1cc(N2CCOCC2)oc2c(-c3ccccc3)cccc12 [LY294002, reference compound]

- melting point: 100 to 102 °C
Structure (SMILES): C=CCNC(=S)N/N=C(/C)c1c(OCC)ccc2c(C)cc(=O)oc12 [VIc, (Z/E)-1(1-(7-ethoxy-4-methylcoumarin)ethylidene)-4-allyl-thiosemicarbazone]
- IC50 (MCF-7 cells [2]; Homo sapiens, MCF7, 48 h): 2.72 ± 0.13 µM

- melting point: 202 to 204 °C
Structure (SMILES): CCOc1ccc2c(C)cc(=O)oc2c1/C(C)=N\NC(=S)NC [VIa, (Z/E)-1(1-(7-ethoxy-4-methylcoumarin)ethylidene)-4-methyl-thiosemicarbazone]
- IC50 (MCF-7 cells [2]; Homo sapiens, MCF7, 48 h): 11.1 ± 0.58 µM

Structure (SMILES): NC1(c2ccc(-c3nc4ccn5c(=O)[nH]nc5c4cc3-c3ccccc3)cc2)CCC1 [MK-2206]
- IC50 (Akt): 0.008 µM

Structure (SMILES): CCOc1ccc2c(C)cc(=O)oc2c1/C(C)=N\NC(=S)Nc1ccc(OC)cc1 [VIf]
- IC50 [1]: 20.1 ± 1.05 µM
- Selectivity Index MCF-10/MCF-7 [1]: 16.61
- IC50 (MCF-7 cells [2]; Homo sapiens, MCF7, 48 h): 1.21 ± 0.06 µM

Structure (SMILES): CCOc1ccc2c(C)cc(=O)oc2c1C(C)=NN=C1SCC(=O)N1C (mixture of isomers) [VIIIa, (Z/E)-2-{[1-(7-Ethoxy-4-methylcoumarin-8-yl)-ethylidene]-hydrazono}-3-methyl-thiazolidin-4-one]
- IC50 (MCF-7 cells [2]; 48 h): 20.3 ± 1.06 µM
